Here are results for 17 compounds from US4386099A, “Imidazolylphenyl amidines, pharmaceutical compositions containing same and use thereof” (Istituto de Angeli S.p.A., priority 1980, dated 1983).

As a reminder, the EC50 is the concentration at which the effect is half-maximal. As a reminder, the ED50 is the dose that gives a 50% effect, or the effect in half of the subjects.

The target in data set [1] is T1, histamine H2-receptors (Cavia porcellus, UniProt P47747).
T1 construct: isolated guinea pig atria suspended in an organ bath; from tissue; host or cells: isolated guinea pig atria
T1 sequence (P47747 whole entry): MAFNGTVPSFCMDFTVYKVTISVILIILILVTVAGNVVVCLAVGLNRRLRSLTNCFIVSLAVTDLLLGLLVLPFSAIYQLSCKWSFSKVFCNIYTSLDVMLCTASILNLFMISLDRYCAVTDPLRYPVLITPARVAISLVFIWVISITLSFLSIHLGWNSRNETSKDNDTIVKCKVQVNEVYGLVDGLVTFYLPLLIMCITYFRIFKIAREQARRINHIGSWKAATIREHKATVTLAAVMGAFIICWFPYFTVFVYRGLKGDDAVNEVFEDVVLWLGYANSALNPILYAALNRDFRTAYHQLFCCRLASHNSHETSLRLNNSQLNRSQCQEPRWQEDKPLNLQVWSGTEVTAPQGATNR
The data set is described as follows: In vitro inhibitory activity in histamine-induced tachycardia (positive chronotropic effect, isolated guinea pig atria). Format: cell-based. The following applies: reduction of histamine (10^-6 g/ml) H2-evoked response, pH 7.4, 32° C. As for the experimental part:
The positive chronotropic effect has been investigated in isolated guinea pig atria suspended in an organ bath (50 ml) containing oxygenated (O2 : 95%, CO2 : 5%) Krebs-Henseleit solution (pH 7.4) maintained at 32° C. The myocardial preparation, loaded at 1 gm of isometric tension, is allowed to stabilize for 60 minutes and myocardial contractions are recorded through an isometric lever connected to a strain-gauge coupler. The instantaneous rate is monitored with a cardiotachymeter and a heat-writing pen recorder. After a control run, responses (tachycardia) to histamine (10^-6 g/ml) are obtained three times at 30 minute intervals. The test compounds are added to the bath to the desired final concentration, and the atria are again injected with histamine. The chronotropic response obtained in the presence of the antagonist is then compared to the control response to histamine, and the percent reduction of the histamine H2 -evoked response is calculated. […] 3 Smooth Muscle, Ed Daniel E. E. Patron, M., Plenum Press. New York (1975), and Ash and Schild, Br. J. Pharmacol. Chemother. 27 427-439 (1966).

Data set [2] has as its target T2, histamine H2-receptors (Rattus norvegicus, UniProt P25102).
T2 construct: from tissue; host or cells: stomach of the anaesthetised rat, in vivo
Description: In vivo anti-secretory activity in histamine-induced gastric secretion (stomach perfused rat). The following applies: iv. On the procedure: The preparation of the animals in general anaesthesia (urethane, 1 gm/kg i.p.) and constant temperature, is achieved by inserting and typing in place polyethyl tubes (PE 50) in the esophagus and in the pyloric-antral region. After the stomach is washed to remove residual food, continuous perfusion of the stomach is started with saline, 0.5 ml/min (37° C.), primed by a Jobling peristaltic pump. After 30 minutes of perfusion adaptation, the stomach perfusate is collected in 30 minute samples, and the samples are titrated for acid content, expressed as μEq of 1 N NaOH. As acid output becomes constant, as a control, intravenous perfusion of histamine (1 mg/kg.hr) is started and maintained throughout the experimental period. […] The ED50 values are then calculated by standard procedure.

The conditions of data set [3]: in vivo; cited from earlier work.
The conditions of data set [4]: in vivo; cited from earlier work. The source holds these as a separate data set.
For data set [5], the system named is H2-receptor. The following applies: cited from earlier work; for Potency as H2-receptor antagonist: in vitro testing, vs cimetidine.
In data set [6] the test system is H2-receptor. The following applies: in man, vs burimamide; cited from earlier work.
For data set [7] the following is noted: in vivo; cited from earlier work. This is another data set of the same source.
The next data set relates to gastric acid secretion. As to conditions: in vivo testing, vs cimetidine; cited from earlier work.
Where [8] appears, read: stomach perfused rat, histamine 1 mg/kg.hr i.v., expressed with regard to the compound as a base, read-out: ED50.

Like-named read-outs stand apart in the source and are kept apart here.

T2 sequence (P25102 whole entry): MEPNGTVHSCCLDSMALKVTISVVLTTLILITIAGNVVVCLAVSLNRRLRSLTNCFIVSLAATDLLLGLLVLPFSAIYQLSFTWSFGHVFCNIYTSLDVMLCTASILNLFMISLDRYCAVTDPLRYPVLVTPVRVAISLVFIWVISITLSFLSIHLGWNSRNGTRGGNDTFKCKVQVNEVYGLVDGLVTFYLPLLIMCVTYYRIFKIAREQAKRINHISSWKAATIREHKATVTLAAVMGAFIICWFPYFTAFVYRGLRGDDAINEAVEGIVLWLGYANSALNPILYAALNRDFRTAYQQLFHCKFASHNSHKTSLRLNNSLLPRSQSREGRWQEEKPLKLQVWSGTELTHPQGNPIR

`CC(C)NC=Nc1ccc(-c2c[nH]cn2)cc1` [B, N-Isopropyl-N'-[4-(imidazol-4-yl)-phenyl]-formamidine] came in with an EC50 at histamine H2-receptors [1] of 92 nM. Also, the ED50 on histamine H2-receptors [2] (setting [8]) worked out at 0.0129 mg/kg.
The compound `C=CCNC=Nc1ccc(-c2c[nH]cn2)cc1` [C, N-Allyl-N'-[4-(imidazol-4-yl)-phenyl]-formamidine] gave a concentration giving a half-maximal response (EC50) at histamine H2-receptors [1] of 93 nM. Besides, the ED50 on histamine H2-receptors [2] (setting [8]) turned out to be 0.024 mg/kg.
In the case of `CN/C(=N/CCSCc1nc[nH]c1C)NC#N` [Cimetidine], in data set [3], the Toxic side effects result is on record as “devoid of the toxic side effects of metiamide”. At histamine H2-receptors [2] (rat), this compound showed an ED50 of 0.56 mg/kg. Besides, in data set [4], the Half-life entry was “relatively short”. Also, in the data set with H2-receptor [5] (cimetidine vs metiamide), the “Potency as H2-antagonist” value was “as potent as metiamide”.
In turn, `CCNC=Nc1ccc(-c2c[nH]cn2)cc1` [Compound A, N-Ethyl-N'-[4-(imidazol-4-yl)-phenyl]-formamidine] gave a half-maximal effective concentration (EC50) at histamine H2-receptors [1] of 300 nM. Also, at histamine H2-receptors [2] (setting [8]), the ED50 is 0.02 mg/kg.
`CCC(C)NC=Nc1ccc(-c2c[nH]cn2)cc1` (centres unmarked) [Compound E, N-sec-Butyl-N'-[4-(imidazol-4-yl)-phenyl]-formamidine] came in with an EC50 on histamine H2-receptors [1] of 150 nM. Also, the ED50 on histamine H2-receptors [2] (setting [8]) was 0.0223 mg/kg.
`CCCNC=Nc1ccc(-c2c[nH]cn2)cc1` [D, N-n-Propyl-N'-[4-(imidazol-4-yl)-phenyl]-formamidine] returned an EC50 on histamine H2-receptors [1] of 44 nM. Moreover, at histamine H2-receptors [2] (setting [8]), the ED50 turned out to be 0.0111 mg/kg.
On to `CC(C)CNC=Nc1ccc(-c2c[nH]cn2)cc1` [F, N-Isobutyl-N'-[4-(imidazol-4-yl)-phenyl]-formamidine], for which the EC50 on histamine H2-receptors [1] came to 65 nM. Also, on histamine H2-receptors [2] (setting [8]), the ED50 amounted to 0.0259 mg/kg.
For `CC(C)=CCNC=Nc1ccc(-c2c[nH]cn2)cc1` [G], in that order: 74 nM and 0.0559 mg/kg.
Compound `C(=Nc1ccc(-c2c[nH]cn2)cc1)NCC1CC1` [H, N-Cyclopropylmethyl-N'-[4-(imidazol-4-yl)-phenyl]-formamidine] came in with an EC50 on histamine H2-receptors [1] of 48 nM. In addition, the ED50 on histamine H2-receptors [2] (setting [8]) came out at 0.0235 mg/kg.
`C(=Nc1ccc(-c2c[nH]cn2)cc1)NC1CC1` [I, N-Cyclopropyl-N'-[4-(imidazol-4-yl)-phenyl]-formamidine] yielded a half-maximal effective concentration (EC50) at histamine H2-receptors [1] of 379 nM. In addition, the median effective dose (ED50) on histamine H2-receptors [2] (setting [8]) came to 0.0366 mg/kg.
The corresponding values for `C=CC(C)NC=Nc1ccc(-c2c[nH]cn2)cc1` (stereo not drawn) [J, N-(α-Methylallyl)-N'-[4-(imidazol-4-yl)-phenyl]-formamidine] are 168 nM and 0.042 mg/kg.
Turning to `CC(C)(C)CNC=Nc1ccc(-c2c[nH]cn2)cc1` [K, N-Neopentyl-N'-[4-(imidazol-4-yl)-phenyl]-formamidine], a half-maximal effect on histamine H2-receptors [1] (EC50) was put at 121 nM. On histamine H2-receptors [2] (setting [8]), the ED50 is 0.03 mg/kg.
The corresponding values for `CC1(C)CC1CNC=Nc1ccc(-c2c[nH]cn2)cc1` (centres unmarked) [L, N-(2,2-Dimethyl)-cyclopropylmethyl-N'-[4-(imidazol-4-yl)-phenyl]-formamidine] are 500 nM and 0.034 mg/kg.
Regarding `C/N=C(\S)NCCSCc1[nH]cnc1C` [Metiamide], in data set [3], the Toxic side effects result was “toxic side effects (agranulocytosis)”. Further, the “Potency and oral activity” value in the data set with H2-receptor [6] was “more potent and orally active in man than burimamide”.
Take `CNC(=S)NCCCCc1cnc[nH]1` [burimamide]: the Oral bioavailability entry in data set [7] is recorded as “seemed to lack sufficient oral bioavailability”.
In the case of `CNC(=C[N+](=O)[O-])NCCSCc1ccc(CN(C)C)o1` [ranitidine], in the data set on H2-receptor [5], the “Potency as H2-receptor antagonist” value was “more potent than cimetidine”. Besides, in the data set on gastric acid secretion, the “Potency as inhibitor of gastric acid secretion” value is given as “more potent than cimetidine”.
With `CNC(=NCCSCc1csc(N=C(N)N)n1)NC#N` [tiotidine], in the data set on H2-receptor [5], the “Potency as H2-receptor antagonist” value is recorded as “more potent than cimetidine”. Further, in the data set on gastric acid secretion, the “Potency as inhibitor of gastric acid secretion” value was “more potent than cimetidine”.
